Reference: ChEMBL document CHEMBL4627408, “Metabolic Activation of Pirfenidone Mediated by Cytochrome P450s and Sulfotransferases” (J Med Chem, 2020)

How the values were obtained:
Cytochrome P450 3A5 [1] = target: T1, Cytochrome P450 3A5 (Homo sapiens, UniProt P20815); experiment: Drug level assessed as human recombinant CYP3A5-mediated compound formation using 50 uM pirfenidone incubated for 45 mins in presence of NADPH and glutathione by LC-MS/MS analysis; format: ADME; conditions: recombinant enzyme, 0.75 h
T1 sequence (P20815 whole entry): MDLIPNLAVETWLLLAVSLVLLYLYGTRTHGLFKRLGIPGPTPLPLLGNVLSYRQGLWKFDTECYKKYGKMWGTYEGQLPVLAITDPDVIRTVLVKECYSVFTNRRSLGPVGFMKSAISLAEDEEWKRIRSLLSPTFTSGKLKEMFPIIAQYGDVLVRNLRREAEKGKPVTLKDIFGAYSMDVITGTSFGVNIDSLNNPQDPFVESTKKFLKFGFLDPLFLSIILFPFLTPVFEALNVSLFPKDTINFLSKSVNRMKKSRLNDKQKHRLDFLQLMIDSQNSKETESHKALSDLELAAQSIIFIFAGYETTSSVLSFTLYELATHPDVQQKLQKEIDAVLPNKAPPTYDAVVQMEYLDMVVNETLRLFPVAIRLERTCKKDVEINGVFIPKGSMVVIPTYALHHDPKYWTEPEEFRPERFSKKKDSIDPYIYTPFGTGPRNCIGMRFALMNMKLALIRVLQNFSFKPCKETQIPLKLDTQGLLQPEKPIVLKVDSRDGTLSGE

Cytochrome P450 3A4 [2] = target: T2, Cytochrome P450 3A4 (Homo sapiens, UniProt P08684); experiment: Drug level assessed as human recombinant CYP3A4-mediated compound formation using 50 uM pirfenidone incubated for 45 mins in presence of NADPH and glutathione by LC-MS/MS analysis; format: ADME; conditions: recombinant enzyme, 0.75 h
T2 sequence (P08684 whole entry): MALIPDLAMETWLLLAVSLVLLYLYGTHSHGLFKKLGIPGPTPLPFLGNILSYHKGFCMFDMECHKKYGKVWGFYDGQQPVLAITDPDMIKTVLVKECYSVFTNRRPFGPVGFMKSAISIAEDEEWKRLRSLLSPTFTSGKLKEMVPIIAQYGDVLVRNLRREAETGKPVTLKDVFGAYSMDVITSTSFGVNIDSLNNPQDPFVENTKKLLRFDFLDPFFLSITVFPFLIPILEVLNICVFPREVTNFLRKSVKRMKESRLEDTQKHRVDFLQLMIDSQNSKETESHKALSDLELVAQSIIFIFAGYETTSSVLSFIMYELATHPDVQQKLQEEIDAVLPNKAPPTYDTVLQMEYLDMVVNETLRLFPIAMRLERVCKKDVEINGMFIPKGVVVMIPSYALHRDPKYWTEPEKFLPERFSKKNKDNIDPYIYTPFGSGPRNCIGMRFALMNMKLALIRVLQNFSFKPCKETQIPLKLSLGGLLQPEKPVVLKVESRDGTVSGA

[3] = Retention time in rat liver microsomes treated with 50 uM pirfenidone incubated for 45 mins in presence of NADPH and NAC by LC-MS/MS analysis; format: ADME, Microsome; conditions: 0.75 h
[4] = Drug metabolism in rat liver microsomes assessed as 5-Hydroxymethyl-1-phenyl-1H-pyridine-2-one formation at 50 uM incubated for 45 mins in presence of NADPH and glutathione by LC-MS/MS analysis; format: ADME, Microsome; conditions: 0.75 h
[5] = Drug metabolism in rat liver microsomes assessed as Retention time of GSH metabolite at 50 uM incubated for 45 mins in presence of NADPH and glutathione by LC-MS/MS analysis; format: ADME, Microsome; conditions: 0.75 h
Cytochrome P450 3A4 [6] = target: T2, Cytochrome P450 3A4; experiment: Drug metabolism assessed as human recombinant CYP3A4-mediated 5-methylene-1-phenyl-pyridin-1-ium-2-one formation at 50 uM incubated for 45 mins in presence of NADPH and glutathione by LC-MS/MS analysis; format: ADME; conditions: recombinant enzyme, 0.75 h
Cytochrome P450 3A5 [7] = target: T1, Cytochrome P450 3A5; experiment: Drug metabolism assessed as human recombinant CYP3A5-mediated 5-methylene-1-phenyl-pyridin-1-ium-2-one formation at 50 uM incubated for 45 mins in presence of NADPH and glutathione by LC-MS/MS analysis; format: ADME; conditions: recombinant enzyme, 0.75 h
[8] = Drug metabolism in rat bile assessed as formation of (2R)-2-acetamido-3-[(6-oxo-1-phenyl-3-pyridyl)methylsulfanyl]propanoic acid at 100 mg/kg, ip measured after 2 hrs by LC-MS/MS analysis; format: ADME, organism-based; conditions: in vivo
[9] = Drug metabolism in rat liver assessed as formation of GSH-conjugate at 100 mg/kg, ip measured up to 3 hrs by LC-MS/MS analysis; format: ADME, organism-based; conditions: in vivo
[10] = Drug metabolism in rat liver assessed as formation of GSH-conjugate by measuring retention time of cysteine adduct in proteolytic protein samples at 10 to 400 mg/kg, ip measured up to 3 hrs by LC-MS/MS analysis; format: ADME, organism-based; conditions: in vivo
[11] = Drug metabolism in rat liver assessed as formation of GSH-conjugate by measuring hepatic protein adduction formation at 50 to 200 mg/kg, ip measured after 1 hr by LC-MS/MS analysis; format: ADME, organism-based; conditions: in vivo
Cytochrome P450 2A6 = target: T3, Cytochrome P450 2A6 (Homo sapiens, UniProt P11509); experiment: Drug metabolism assessed as human recombinant CYP2A6-mediated compound activation using 50 uM pirfenidone incubated for 45 mins in presence of NADPH and glutathione by LC-MS/MS analysis; format: ADME; conditions: recombinant enzyme, 0.75 h
T3 sequence (P11509 whole entry): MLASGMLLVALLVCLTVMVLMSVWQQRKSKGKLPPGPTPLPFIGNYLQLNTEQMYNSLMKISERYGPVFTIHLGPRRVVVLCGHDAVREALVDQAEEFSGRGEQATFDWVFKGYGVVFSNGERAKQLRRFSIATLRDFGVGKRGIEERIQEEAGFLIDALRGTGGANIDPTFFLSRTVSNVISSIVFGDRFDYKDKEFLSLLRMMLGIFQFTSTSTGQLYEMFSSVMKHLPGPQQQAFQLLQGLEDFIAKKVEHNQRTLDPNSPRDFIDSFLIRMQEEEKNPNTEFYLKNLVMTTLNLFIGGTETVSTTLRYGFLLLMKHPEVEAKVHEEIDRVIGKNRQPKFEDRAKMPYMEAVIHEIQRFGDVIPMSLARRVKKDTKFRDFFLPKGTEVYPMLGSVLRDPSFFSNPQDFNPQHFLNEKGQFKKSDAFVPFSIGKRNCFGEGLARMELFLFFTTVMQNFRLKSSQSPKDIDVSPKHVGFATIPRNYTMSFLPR

[12] = Toxicity in rat assessed as induction of liver injury at 150 to 200 mg/kg, ip; format: organism-based; conditions: in vivo
Hepatocyte = experiment: Toxicity in rat primary hepatocytes at 800 uM; format: cell-based
[13] = Retention time in rat liver microsomes treated with 50 uM pirfenidone incubated for 45 mins in presence of NADPH by LC-MS/MS analysis; format: ADME, Microsome; conditions: 0.75 h

C=C1C=CC(=O)[N+](c2ccccc2)=C1
Drug uptake (Cytochrome P450 3A5 [1]): Metabolite_Detected
Drug uptake (Cytochrome P450 3A4 [2]): Metabolite_Detected

CC(=O)N[C@@H](CSCc1ccc(=O)n(-c2ccccc2)c1)C(=O)O
Retention_time [3]: 7.26 min

Cc1ccc(=O)n(-c2ccccc2)c1 [PIRFENIDONE]
Drug metabolism [4]: Metabolite_Detected
Retention_time [5]: 6.6 min
Drug metabolism (Cytochrome P450 3A4 [6]): Metabolite_Detected
Drug metabolism (Cytochrome P450 3A5 [7]): Metabolite_Detected
Drug metabolism [8]: Metabolite_Detected
Drug metabolism [9]: Dose-dependent effect
Retention_time [10]: 6.24 min
Drug metabolism [11]: Dose-dependent effect
Drug metabolism (Cytochrome P450 2A6): Metabolite_Detected
Activity [12]: Non-Toxic
Activity (Hepatocyte): Non-Toxic

O=c1ccc(CO)cn1-c1ccccc1
Retention_time [13]: 7.25 min
